Assay results from patent EP0754034B1, “EFFERVESCENT PHARMACEUTICAL FORMULATIONS CONTAINING CONTROLLED RELEASE BIODEGRADABLE MICROCAPSULES” (ELAN CORPORATION, Plc, priority 1994, dated 1995).
Values after ≈ are worked out from the molar mass of the structure shown. Read-outs that look alike come from different tables or passages of the source.

Assays:
[1] = Saturated solubility (Cs) measured to establish sink conditions; type: physicochemical
Method: Prior to carrying out in vitro release studies, the saturated solubility of diltiazem HCI was measured in order to establish sink conditions.
Prior to carrying out in vitro release studies, the saturated solubility of diltiazem base was measured in order to establish sink conditions. […] The microsphere systems studied had diltiazem base starting loadings of 10% w/w, 20% w/w, 30% w/w, and 50% w/w, D 50% of […], respectively, and were prepared by Method A using the Ultra Turrax.

[2] = cited from earlier work

| Structure (SMILES) | solubility ([1]; aqueous buffer, thermodynamic from solid, phosphate buffer pH 7.4, read-out: Cs (saturated solubility)) [mg/mL] | solubility ([1]; pH 1.2, read-out: Cs (saturated solubility)) [mg/mL] | solubility ([1]; pH 1.2, simulated gastric fluid, thermodynamic from solid) [mg/mL] | solubility ([1]; pH 7.4, aqueous buffer, thermodynamic from solid) [mg/mL] | pKa [2] |
| --- | --- | --- | --- | --- | --- |
| COc1ccc([C@@H]2Sc3ccccc3N(CCN(C)C)C(=O)[C@@H]2OC(C)=O)cc1 [Diltiazem HCI] | 2.39 (≈ 5.77 mM) | > 1000 | – | – | – |
| COc1ccc([C@@H]2Sc3ccccc3N(CCN(C)C)C(=O)[C@@H]2OC(C)=O)cc1 [Diltiazem base] | – | – | 227 (≈ 549 mM) | 1.06 (≈ 2.56 mM) | around 8 |
